Laboratory results taken from the supplement of paper PMC6045584.
± gives the standard deviation of the averaged measurements.

Legend:
[1] = compound: CC(=O)c1c(C)c2cnc(Nc3ccc(N4CCNCC4)cn3)nc2n(C2CCCC2)c1=O; test: surviving fraction relative to DMSO-only wells; higher = less growth inhibition; conditions: exposure time: 5 days
Summary of the method: (§1)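 Tumour cell lines in log phase were plated in 384-well plates at 250–500 cells per well, then, after 24 hours, exposed continuously for five days to inhibitors at 0.5, 1, 5, 10, 50, 100, 500 and 1000 nM. Viability came from CellTiter-Glo luminescence, and surviving fraction is that signal normalised to the median of DMSO-only wells. Plates were read after 10 minutes at room temperature, and each line, screened three times, was kept only when replicate Pearson r was >0.7 and median Z' was >0.3.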

[2] = compound: C[C@]1(O)C[C@@H](c2nc(-c3ccc4ccc(-c5ccccc5)nc4c3)c3c(N)nccn32)C1 [OSI-906]; test: as above; conditions: exposure time: 5 days
Summary of the method: as §1

COLO320DM LARGE INTESTINE
surviving fraction ([1]; 0.5 nM): 1.084 ± 0.0093 | surviving fraction ([1]; 1 nM): 1.08 ± 0.04 | surviving fraction ([1]; 5 nM): 1.12 ± 0.038 | surviving fraction ([1]; 10 nM): 1.1 ± 0.039 | surviving fraction ([1]; 50 nM): 1.08 ± 0.065 | surviving fraction ([1]; 100 nM): 1.05 ± 0.048 | surviving fraction ([1]; 500 nM): 0.78 ± 0.061 | surviving fraction ([1]; 1000 nM): 0.735 ± 0.039 | surviving fraction ([2]; 0.5 nM): 1.03 ± 0.099 | surviving fraction ([2]; 1 nM): 1.09 ± 0.065 | surviving fraction ([2]; 5 nM): 1.09 ± 0.023 | surviving fraction ([2]; 10 nM): 1.01 ± 0.049 | surviving fraction ([2]; 50 nM): 0.875 ± 0.04 | surviving fraction ([2]; 100 nM): 0.818 ± 0.076 | surviving fraction ([2]; 500 nM): 0.572 ± 0.048 | surviving fraction ([2]; 1000 nM): 0.528 ± 0.032

SG43 HEADNECK
surviving fraction ([1]; 0.5 nM): 0.92 ± 0.039 | surviving fraction ([1]; 1 nM): 1 ± 0.12 | surviving fraction ([1]; 5 nM): 0.862 ± 0.16 | surviving fraction ([1]; 10 nM): 0.855 ± 0.059 | surviving fraction ([1]; 50 nM): 0.73 ± 0.11 | surviving fraction ([1]; 100 nM): 0.745 ± 0.12 | surviving fraction ([1]; 500 nM): 1.02 ± 0.12 | surviving fraction ([1]; 1000 nM): 0.766 ± 0.28 | surviving fraction ([2]; 0.5 nM): 1.21 ± 0.074 | surviving fraction ([2]; 1 nM): 1.18 ± 0.13 | surviving fraction ([2]; 5 nM): 0.829 ± 0.025 | surviving fraction ([2]; 10 nM): 0.987 ± 0.12 | surviving fraction ([2]; 50 nM): 0.695 ± 0.051 | surviving fraction ([2]; 100 nM): 0.665 ± 0.06 | surviving fraction ([2]; 500 nM): 0.697 ± 0.021 | surviving fraction ([2]; 1000 nM): 0.614 ± 0.021

H23 LUNG
surviving fraction ([1]; 0.5 nM): 1.01 ± 0.035 | surviving fraction ([1]; 1 nM): 1 ± 0.029 | surviving fraction ([1]; 5 nM): 1.04 ± 0.038 | surviving fraction ([1]; 10 nM): 0.928 ± 0.065 | surviving fraction ([1]; 50 nM): 1.132 ± 0.01 | surviving fraction ([1]; 100 nM): 1.12 ± 0.068 | surviving fraction ([1]; 500 nM): 1.15 ± 0.074 | surviving fraction ([1]; 1000 nM): 1.13 ± 0.033 | surviving fraction ([2]; 0.5 nM): 0.902 ± 0.047 | surviving fraction ([2]; 1 nM): 0.897 ± 0.044 | surviving fraction ([2]; 5 nM): 0.931 ± 0.05 | surviving fraction ([2]; 10 nM): 0.904 ± 0.03 | surviving fraction ([2]; 50 nM): 0.879 ± 0.031 | surviving fraction ([2]; 100 nM): 0.848 ± 0.061 | surviving fraction ([2]; 500 nM): 0.662 ± 0.016 | surviving fraction ([2]; 1000 nM): 0.607 ± 0.03

A549 LUNG
surviving fraction ([1]; 0.5 nM): 1.03 ± 0.035 | surviving fraction ([1]; 1 nM): 1.02 ± 0.018 | surviving fraction ([1]; 5 nM): 1.05 ± 0.0087 | surviving fraction ([1]; 10 nM): 0.993 ± 0.039 | surviving fraction ([1]; 50 nM): 1.07 ± 0.063 | surviving fraction ([1]; 100 nM): 1.12 ± 0.042 | surviving fraction ([1]; 500 nM): 1.154 ± 0.007 | surviving fraction ([1]; 1000 nM): 1.116 ± 0.011 | surviving fraction ([2]; 0.5 nM): 0.932 ± 0.016 | surviving fraction ([2]; 1 nM): 0.943 ± 0.028 | surviving fraction ([2]; 5 nM): 0.948 ± 0.0087 | surviving fraction ([2]; 10 nM): 0.931 ± 0.013 | surviving fraction ([2]; 50 nM): 0.96 ± 0.029 | surviving fraction ([2]; 100 nM): 0.97 ± 0.031 | surviving fraction ([2]; 500 nM): 0.935 ± 0.027 | surviving fraction ([2]; 1000 nM): 0.908 ± 0.025

JIMT1 BREAST
surviving fraction ([1]; 0.5 nM): 0.959 ± 0.013 | surviving fraction ([1]; 1 nM): 0.9905 ± 0.0018 | surviving fraction ([1]; 5 nM): 0.993 ± 0.024 | surviving fraction ([1]; 10 nM): 0.964 ± 0.027 | surviving fraction ([1]; 50 nM): 1.1 ± 0.03 | surviving fraction ([1]; 100 nM): 1 ± 0.031 | surviving fraction ([1]; 500 nM): 1.05 ± 0.014 | surviving fraction ([1]; 1000 nM): 1.01 ± 0.032 | surviving fraction ([2]; 0.5 nM): 0.921 ± 0.029 | surviving fraction ([2]; 1 nM): 0.892 ± 0.02 | surviving fraction ([2]; 5 nM): 0.92 ± 0.063 | surviving fraction ([2]; 10 nM): 0.926 ± 0.03 | surviving fraction ([2]; 50 nM): 1.02 ± 0.039 | surviving fraction ([2]; 100 nM): 1.08 ± 0.094 | surviving fraction ([2]; 500 nM): 1.02 ± 0.077 | surviving fraction ([2]; 1000 nM): 1.02 ± 0.046

RDES SOFT TISSUE
surviving fraction ([1]; 0.5 nM): 1.27 ± 0.17 | surviving fraction ([1]; 1 nM): 1.18 ± 0.037 | surviving fraction ([1]; 5 nM): 1.23 ± 0.067 | surviving fraction ([1]; 10 nM): 1.02 ± 0.19 | surviving fraction ([1]; 50 nM): 1.02 ± 0.24 | surviving fraction ([1]; 100 nM): 1.02 ± 0.21 | surviving fraction ([1]; 500 nM): 1.67 ± 0.18 | surviving fraction ([1]; 1000 nM): 1.57 ± 0.2 | surviving fraction ([2]; 0.5 nM): 0.836 ± 0.081 | surviving fraction ([2]; 1 nM): 0.818 ± 0.12 | surviving fraction ([2]; 5 nM): 0.77 ± 0.14 | surviving fraction ([2]; 10 nM): 0.733 ± 0.18 | surviving fraction ([2]; 50 nM): 1.1 ± 0.019 | surviving fraction ([2]; 100 nM): 1.05 ± 0.086 | surviving fraction ([2]; 500 nM): 0.84 ± 0.015 | surviving fraction ([2]; 1000 nM): 0.555 ± 0.032

SCC90 HEADNECK
surviving fraction ([1]; 0.5 nM): 1.092 ± 0.0083 | surviving fraction ([1]; 1 nM): 1.1 ± 0.11 | surviving fraction ([1]; 5 nM): 1.12 ± 0.1 | surviving fraction ([1]; 10 nM): 1.15 ± 0.025 | surviving fraction ([1]; 50 nM): 1.06 ± 0.042 | surviving fraction ([1]; 100 nM): 1.19 ± 0.14 | surviving fraction ([1]; 500 nM): 1.12 ± 0.056 | surviving fraction ([1]; 1000 nM): 1.13 ± 0.13 | surviving fraction ([2]; 0.5 nM): 0.88 ± 0.033 | surviving fraction ([2]; 1 nM): 0.822 ± 0.075 | surviving fraction ([2]; 5 nM): 0.89 ± 0.096 | surviving fraction ([2]; 10 nM): 0.883 ± 0.026 | surviving fraction ([2]; 50 nM): 1.03 ± 0.098 | surviving fraction ([2]; 100 nM): 1.02 ± 0.027 | surviving fraction ([2]; 500 nM): 0.971 ± 0.019 | surviving fraction ([2]; 1000 nM): 0.981 ± 0.078

ASKA SYNOVIAL
surviving fraction ([1]; 0.5 nM): 1.04 ± 0.06 | surviving fraction ([1]; 1 nM): 0.971 ± 0.057 | surviving fraction ([1]; 5 nM): 1.06 ± 0.094 | surviving fraction ([1]; 10 nM): 1.02 ± 0.071 | surviving fraction ([1]; 50 nM): 1.07 ± 0.1 | surviving fraction ([1]; 100 nM): 1.08 ± 0.074 | surviving fraction ([1]; 500 nM): 0.82 ± 0.034 | surviving fraction ([1]; 1000 nM): 0.73 ± 0.023 | surviving fraction ([2]; 0.5 nM): 0.934 ± 0.059 | surviving fraction ([2]; 1 nM): 0.99 ± 0.057 | surviving fraction ([2]; 5 nM): 1.01 ± 0.011 | surviving fraction ([2]; 10 nM): 1.07 ± 0.071 | surviving fraction ([2]; 50 nM): 1.11 ± 0.13 | surviving fraction ([2]; 100 nM): 1.12 ± 0.045 | surviving fraction ([2]; 500 nM): 0.966 ± 0.083 | surviving fraction ([2]; 1000 nM): 0.97 ± 0.029

C33A CERVIX
surviving fraction ([1]; 0.5 nM): 0.978 ± 0.065 | surviving fraction ([1]; 1 nM): 1.05 ± 0.066 | surviving fraction ([1]; 5 nM): 1.14 ± 0.13 | surviving fraction ([1]; 10 nM): 1.08 ± 0.067 | surviving fraction ([1]; 50 nM): 1.15 ± 0.13 | surviving fraction ([1]; 100 nM): 1.2 ± 0.11 | surviving fraction ([1]; 500 nM): 1.01 ± 0.082 | surviving fraction ([1]; 1000 nM): 1.16 ± 0.12 | surviving fraction ([2]; 0.5 nM): 0.981 ± 0.054 | surviving fraction ([2]; 1 nM): 0.945 ± 0.052 | surviving fraction ([2]; 5 nM): 1.08 ± 0.011 | surviving fraction ([2]; 10 nM): 1.1 ± 0.053 | surviving fraction ([2]; 50 nM): 1.02 ± 0.13 | surviving fraction ([2]; 100 nM): 1.05 ± 0.14 | surviving fraction ([2]; 500 nM): 1.06 ± 0.096 | surviving fraction ([2]; 1000 nM): 0.985 ± 0.011

CASKI CERVIX
surviving fraction ([1]; 0.5 nM): 1.02 ± 0.062 | surviving fraction ([1]; 1 nM): 0.971 ± 0.028 | surviving fraction ([1]; 5 nM): 0.999 ± 0.038 | surviving fraction ([1]; 10 nM): 0.977 ± 0.015 | surviving fraction ([1]; 50 nM): 1.09 ± 0.034 | surviving fraction ([1]; 100 nM): 1.08 ± 0.019 | surviving fraction ([1]; 500 nM): 1.05 ± 0.049 | surviving fraction ([1]; 1000 nM): 1.05 ± 0.028 | surviving fraction ([2]; 0.5 nM): 0.826 ± 0.028 | surviving fraction ([2]; 1 nM): 0.849 ± 0.029 | surviving fraction ([2]; 5 nM): 0.814 ± 0.049 | surviving fraction ([2]; 10 nM): 0.798 ± 0.038 | surviving fraction ([2]; 50 nM): 0.976 ± 0.067 | surviving fraction ([2]; 100 nM): 0.965 ± 0.064 | surviving fraction ([2]; 500 nM): 0.982 ± 0.068 | surviving fraction ([2]; 1000 nM): 0.982 ± 0.051
